Test results reported in patent publication US20100204203A1, “Chemical Compounds 637: Pyridopyrimidinediones as PDE4 Inhibitors” (priority 2007, published 2010).
Counter-ions that a name gives are not always drawn.

What follows are compounds tested against recombinant Human Phosphodiesterase B2 (PDE4B2) (Homo sapiens, UniProt Q07343) (assay: Human Phosphodiesterase B2 Radiometric Assay (yttrium silicate SPA beads, [3H]cyclic AMP)). Conditions: recombinant human PDE4B2, radiometric SPA assay, 8 nM [3H]cyclic AMP; read-out: PDE4B2 pIC50 (converted).
Assay type: biochemical
Outline: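 Compounds were preincubated 30 min at 30 °C with 0.1 mg/mL PDE4B2 in 50 mM HEPES pH 7.5, 8.3 mM MgCl2, 1.7 mM EGTA, 0.01% Brij 35. Then 8 nM [3H]cAMP was added for 20 min, stopped with yttrium silicate SPA beads plus 18 mM ZnSO4 capturing product 5′AMP; pIC50 by curve fitting.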

Sequence of recombinant Human Phosphodiesterase B2 (PDE4B2) (Q07343 1-564 isoform Q07343-2): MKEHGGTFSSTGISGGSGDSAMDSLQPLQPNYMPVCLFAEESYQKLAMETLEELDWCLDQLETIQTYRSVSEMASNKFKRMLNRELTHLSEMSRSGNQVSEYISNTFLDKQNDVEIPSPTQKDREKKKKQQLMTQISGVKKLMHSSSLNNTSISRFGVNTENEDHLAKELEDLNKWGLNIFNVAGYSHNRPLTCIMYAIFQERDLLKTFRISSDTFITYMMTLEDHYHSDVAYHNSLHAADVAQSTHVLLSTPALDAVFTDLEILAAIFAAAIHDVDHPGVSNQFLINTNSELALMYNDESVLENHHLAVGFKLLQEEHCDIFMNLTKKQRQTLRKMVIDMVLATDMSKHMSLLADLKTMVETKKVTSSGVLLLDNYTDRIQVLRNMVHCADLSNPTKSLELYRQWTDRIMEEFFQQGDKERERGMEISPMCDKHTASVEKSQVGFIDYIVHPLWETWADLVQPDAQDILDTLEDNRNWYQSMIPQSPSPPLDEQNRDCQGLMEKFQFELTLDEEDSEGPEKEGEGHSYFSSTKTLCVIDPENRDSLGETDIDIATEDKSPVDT

| Compound | IC50 [nM] |
| --- | --- |
| O=C(N[C@H]1CC[C@@H](n2c(=O)c3cc(F)cnc3n(-c3cccc(-c4ccc(OCCO)cc4)c3)c2=O)CC1)c1cn2cc(F)ccc2n1 [Example 58, 6-fluoro-N-{cis-4-[6-fluoro-1-[4′-(2-hydroxyethoxy)biphenyl-3-yl]-2,4-dioxo-1,4-dihydropyrido[2,3-d]pyrimidin-3(2H)-yl]cyclohexyl}imidazo[1,2-a]pyridine-2-carboxamide] | 0.0158 |
| C[C@@H]1CN(Cc2ccc(-c3cccc(-n4c(=O)n([C@H]5CC[C@@H](NC(=O)c6ccc7ccccc7n6)CC5)c(=O)c5cc(F)cnc54)c3)cc2)C[C@H](C)N1 [Example 300, N-{cis-4-[1-(4′-{[(3R,5S)-3,5-dimethylpiperazin-1-yl]methyl}biphenyl-3-yl)-6-fluoro-2,4-dioxo-1,4-dihydropyrido[2,3-d]pyrimidin-3(2H)-yl]cyclohexyl} quinoline-2-carboxamide] | 0.0316 |
| O=C(N[C@H]1CC[C@@H](n2c(=O)c3cc(F)cnc3n(-c3cccc(-c4ccc(CN5CCCNCC5)cc4)c3)c2=O)CC1)c1cnc2ccccc2n1 [Example 352, N-{cis-4-[1-[4′-(1,4-diazepan-1-ylmethyl)biphenyl-3-yl]-6-fluoro-2,4-dioxo-1,4-dihydropyrido[2,3-d]pyrimidin-3(2H)-yl]cyclohexyl} quinoxaline-2-carboxamide] | 0.0158 |
| O=C(N[C@H]1CC[C@@H](n2c(=O)c3cc(F)cnc3n(-c3cccc(-c4ccc(CN5CCCOCC5)cc4)c3)c2=O)CC1)c1ccc(OCCN2CCCC2)cc1 [Example 307, N-{cis-4-[6-fluoro-1-[4′-(1,4-oxazepan-4-ylmethyl)biphenyl-3-yl]-2,4-dioxo-1,4-dihydropyrido[2,3-d]pyrimidin-3(2H)-yl]cyclohexyl}-4-(2-pyrrolidin-1-ylethoxy)benzamide] | 2.51 |
| CC(C)N1CCN(Cc2ccc(-c3cccc(-n4c(=O)n([C@H]5CC[C@@H](NC(=O)CN6CCCCC6)CC5)c(=O)c5cc(F)cnc54)c3)cc2)CC1 [Example 237, N-{cis-4-[6-fluoro-1-{4′-[(4-isopropylpiperazin-1-yl)methyl]biphenyl-3-yl}-2,4-dioxo-1,4-di-hydropyrido[2,3-d]pyrimidin-3(2H)-yl]cyclohexyl}-2-piperidin-1-ylacetamide] | 0.0398 |
| COCCNCc1ccc(-c2cccc(-n3c(=O)n([C@H]4CC[C@@H](NC(=O)c5cc(C)n(C)n5)CC4)c(=O)c4cc(F)cnc43)c2)cc1 [Example 117, N-{cis-4-[6-fluoro-1-(4′-{[(2-methoxyethyl)amino]methyl}biphen-yl-3-yl)-2,4-dioxo-1,4-dihydropyrido[2,3-d]pyrimidin-3(2H)-yl]cyclohexyl}-1,5-dimethyl-1H-pyrazole-3-carboxamide] | 0.126 |
| O=C(Nc1ccccc1)c1cccc(-n2c(=O)n([C@H]3CC[C@@H](NC(=O)c4cn5ccccc5n4)CC3)c(=O)c3cc(F)cnc32)c1 [Example 4, N-{cis-4-[1-[3-(anilinocarbonyl)phenyl]-6-fluoro-2,4-dioxo-1,4-dihydropyrido[2,3-d]pyrimidin-3(2H)-yl]cyclohexyl}imidazo[1,2-c]pyridine-2-carboxamide] | 0.0398 |
| CNC1CCN(Cc2cc(O)ccc2-c2cccc(-n3c(=O)n([C@H]4CC[C@@H](NC(=O)c5cn6cc(F)ccc6n5)CC4)c(=O)c4cc(F)cnc43)c2)CC1 [Example 73, 6-fluoro-N-{cis-4-[6-fluoro-1-(4′-hydroxy-2′-{[4-(methylamino)piperidin-1-yl]methyl}biphenyl-3-yl)-2,4-dioxo-1,4-dihydropyrido[2,3-d]pyrimidin-3(2H)-yl]cyclohexyl}imidazo[1,2-a]pyridine-2-carboxamide trifluoroacetate salt] | 0.0251 |
| O=C(N[C@H]1CC[C@@H](n2c(=O)c3cc(F)cnc3n(-c3cccc(-c4cccc(CN5CCOCC5)c4)c3)c2=O)CC1)c1cn2cc(F)ccc2n1 [Example 13, 6-fluoro-N-{cis-4-[6-fluoro-1-[3′-(morpholin-4-ylmethyl)biphenyl-3-yl]-2,4-dioxo-1,4-dihydropyrido[2,3-d]pyrimidin-3(2H)-yl]cyclohexyl}imidazo[1,2-a]pyridine-2-carboxamide.] | 0.0631 |
| O=c1c2cc(F)cnc2n(-c2cccc(-c3ccc(O)cc3CN3CCOCC3)c2)c(=O)n1[C@H]1CC[C@@H](NCc2cc3ccccc3o2)CC1 [Example 279, 3-{cis-4-[(1-benzofuran-2-ylmethyl)amino]cyclohexyl}-6-fluoro-1-[4′-hydroxy-2′-(morpholin-4-ylmethyl)biphenyl-3-yl]pyrido[2,3-d]pyrimidine-2,4(1H,3H)-dione] | 0.0398 |
| CN1CCCN(Cc2ccc(-c3cccc(-n4c(=O)n([C@H]5CC[C@@H](NC(=O)c6cc7c(o6)CCCC7=O)CC5)c(=O)c5cc(F)cnc54)c3)cc2)CC1 [Example 310, N-{cis-4-[6-fluoro-1-{4′-[(4-methyl-1,4-diazepan-1-yl)methyl]biphenyl-3-yl}-2,4-dioxo-1,4-dihydropyrido[2,3-d]pyrimidin-3(2H)-yl]cyclohexyl}-4-oxo-4,5,6,7-tetrahydro-1-benzofuran-2-carboxamide] | 0.126 |
| O=C(N[C@H]1CC[C@@H](n2c(=O)c3cc(F)cnc3n(-c3cccc(-c4ccccn4)c3)c2=O)CC1)c1cn2cc(F)ccc2n1 [Example 55, 6-fluoro-N-{cis-4-[6-fluoro-2,4-dioxo-1-(3-pyridin-2-ylphenyl)-1,4-dihydropyrido[2,3-d]pyrimidin-3(2H)-yl]cyclohexyl}imidazo[1,2-a]pyridine-2-carboxamide] | 0.1 |
| Cc1cc(C(=O)N[C@H]2CC[C@@H](n3c(=O)c4cc(F)cnc4n(-c4cccc(-c5ccc(CN6CCN(CC(=O)N(C)C)CC6)cc5)c4)c3=O)CC2)nn1C [Example 216] | 0.0126 |
| CN(Cc1ccc(-c2cccc(-n3c(=O)n([C@H]4CC[C@@H](NC(=O)c5cn6cc(F)ccc6n5)CC4)c(=O)c4cc(F)cnc43)c2)cc1)C(C)(C)C [Example 57, N-{cis-4-[1-(4′-{[tert-butyl(methyl)amino]methyl}biphenyl-3-yl)-6-fluoro-2,4-dioxo-1,4-dihydropyrido[2,3-d]pyrimidin-3(2H)-yl]cyclohexyl}-6-fluoroimidazo[1,2-a]pyridine-2-carboxamide] | 0.1 |
| COc1ccc(O)c(CN[C@H]2CC[C@@H](n3c(=O)c4cc(F)cnc4n(-c4cccc(-c5ccc(CN6CCCOCC6)cc5)c4)c3=O)CC2)c1 [Example 267, 6-fluoro-3-{cis-4-[(2-hydroxy-5-methoxybenzyl)amino]cyclohexyl}-1-[4′-(1,4-oxazepan-4-ylmethyl)biphenyl-3-yl]pyrido[2,3-d] pyrimidine-2,4(1H,3H)-dione] | 1.58 |
| C[C@H]1CN(Cc2ccc(-c3cccc(-n4c(=O)n([C@H]5CC[C@@H](NC(=O)c6cn7cc(F)ccc7n6)CC5)c(=O)c5cc(F)cnc54)c3)cc2)CCN1 (relative stereo) [Example 271, 6-Fluoro-N-{cis-4-[6-fluoro-1-(4′-{[(3S)-3-methylpiperazin-1-yl]methyl}biphenyl-3-yl)-2,4-dioxo-1,4-dihydropyrido[2,3-d]pyrimidin-3(2H)-yl]cyclohexyl}imidazo[1,2-a]pyridine-2-carboxamide] | 0.00794 |
| O=c1c2cc(F)cnc2n(-c2cccc(-c3ccc(O)cc3CN3CCOCC3)c2)c(=O)n1[C@H]1CC[C@@H](NCC2CC2)CC1 [Example 249, 3-{cis-4-[(Cyclopropylmethyl)amino]cyclohexyl}-6-fluoro-1-[4′-hydroxy-2′-(morpholin-4-ylmethyl)biphenyl-3-yl]pyrido[2,3-d]pyrimidine-2,4(1H,3H)-dione] | 6.31 |
